In article PMC7308192 (Journal of biomolecular structure & dynamics, 2019):
Several values for one entry are separate records, joined by “and”; a condition that tells them apart may be missing. Equal entries are not always repeated. Where two headings read alike, the source gives them in different places. Each block holds one molecule with its values, some of them ahead of it.

B1: XLG2 C terminal Gα domain (residues from 435 to 861) (domain or fragment, Arabidopsis, UniProt C6KIE6 435-861, looked up)
chain: CAVFSLPVPPASSAVEPYDVPLYEQKMLNKLLLIGSEKGGATTIYKQARSLYNVSFSLEDRERIKFIIQTNLYTYLAMVLEAHERFEKEMSNDQSSGNVGDETSAKPGNSINPRLKHFSDWVLKEKEDGNLKIFPPSSRENAQTVADLWRVPAIQATYKRLRDTLPRNAVYFLERILEISRSEYDPSDMDILQAEGLSSMEGLSCVDFSFPSTSQEESLESDYQHDTDMKYQLIRLNPRSLGENWKLLEMFEDADLVIFCVSLTDYAENIEDGEGNIVNKMLATKQLFENMVTHPSLANKRFLLVLTKFDLLEEKIEEVPLRTCEWFEDFNPLISQNQTSRHNPPMAQRAFHYIGYKFKRLYDSILEPVNMRGRSFKPKLFVCQVSLESDTVDNALRYAREILKWHVEETSMFQEMSTTSIEASSSS
B2: Twinstrep-AtGPA1 (natural protein, Arabidopsis, UniProt P18064 1-383, looked up)
chain: MGLLCSRSRHHTEDTDENTQAAEIERRIEQEAKAEKHIRKLLLLGAGESGKSTIFKQIKLLFQTGFDEGELKSYVPVIHANVYQTIKLLHDGTKEFAQNETDSAKYMLSSESIAIGEKLSEIGGRLDYPRLTKDIAEGIETLWKDPAIQETCARGNELQVPDCTKYLMENLKRLSDINYIPTKEDVLYARVRTTGVVEIQFSPVGENKKSGEVYRLFDVGGQRNERRKWIHLFEGVTAVIFCAAISEYDQTLFEDEQKNRMMETKELFDWVLKQPCFEKTSFMLFLNKFDIFEKKVLDVPLNVCEWFRDYQPVSSGKQEIEHAYEFVKKKFEELYYQNTAPDRVDRVFKIYRTTALDQKLVKKTFKLVDETLRRRNLLEAGLL

How the values were obtained:
AtGPA1 [1] = biological target: T1, AtGPA1 (Arabidopsis thaliana, UniProt P18064); experiment: Microscale thermophoresis; format: binding
T1 sequence (P18064 1-383): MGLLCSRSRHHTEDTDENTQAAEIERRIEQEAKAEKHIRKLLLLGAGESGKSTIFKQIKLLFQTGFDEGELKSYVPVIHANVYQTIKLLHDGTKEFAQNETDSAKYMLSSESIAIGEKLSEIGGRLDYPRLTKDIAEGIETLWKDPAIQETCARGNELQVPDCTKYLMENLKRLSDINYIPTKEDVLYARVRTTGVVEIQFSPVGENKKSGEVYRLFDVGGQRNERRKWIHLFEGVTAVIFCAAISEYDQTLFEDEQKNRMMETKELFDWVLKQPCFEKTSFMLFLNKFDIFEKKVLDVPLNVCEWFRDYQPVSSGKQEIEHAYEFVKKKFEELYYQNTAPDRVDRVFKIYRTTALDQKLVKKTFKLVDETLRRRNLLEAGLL

XLG2 = biological target: T2, XLG2 (Arabidopsis thaliana, UniProt C6KIE6); experiment: Microscale thermophoresis; format: binding
T2 sequence (C6KIE6 435-861): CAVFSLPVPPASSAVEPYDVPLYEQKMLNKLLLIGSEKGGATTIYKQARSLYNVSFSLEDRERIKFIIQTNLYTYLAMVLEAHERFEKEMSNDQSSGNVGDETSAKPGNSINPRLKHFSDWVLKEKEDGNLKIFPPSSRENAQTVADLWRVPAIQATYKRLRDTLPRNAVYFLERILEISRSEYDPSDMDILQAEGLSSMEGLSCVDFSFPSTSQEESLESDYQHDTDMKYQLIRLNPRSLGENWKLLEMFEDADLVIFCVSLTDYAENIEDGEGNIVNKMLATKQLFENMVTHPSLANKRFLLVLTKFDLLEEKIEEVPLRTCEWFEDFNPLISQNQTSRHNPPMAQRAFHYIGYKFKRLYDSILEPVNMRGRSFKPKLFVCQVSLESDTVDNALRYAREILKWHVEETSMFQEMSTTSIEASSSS

AtGPA1 [2] = biological target: T1, AtGPA1; settings: read-out: Kd for GTPγS binding to AtGPA1 using a radioactive ligand, ref Johnston, Willard, Kimple, Siderovski, 2008; cited from earlier work
animal G subunits = settings: read-out: range of Kds reported for animal G subunits; ref Malinski, Zera, Angleson, & Wensel, 1996; cited from earlier work
[3] = biological target: T3, Arabidopsis Gβγ dimer (AGB1/AGG1) (Arabidopsis, UniProt P49177 1-377; Q9FDX9 1-98); experiment: MST
T3 sequence (looked up) 1: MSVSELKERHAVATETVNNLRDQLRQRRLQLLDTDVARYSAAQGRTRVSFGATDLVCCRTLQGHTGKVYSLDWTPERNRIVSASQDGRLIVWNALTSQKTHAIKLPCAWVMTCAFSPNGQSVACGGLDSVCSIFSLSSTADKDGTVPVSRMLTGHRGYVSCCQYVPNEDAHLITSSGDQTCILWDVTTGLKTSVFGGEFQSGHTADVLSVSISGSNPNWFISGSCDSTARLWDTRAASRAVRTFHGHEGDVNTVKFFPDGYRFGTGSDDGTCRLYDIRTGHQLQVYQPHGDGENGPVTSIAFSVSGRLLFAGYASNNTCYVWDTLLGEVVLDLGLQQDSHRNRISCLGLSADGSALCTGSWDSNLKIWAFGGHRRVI
T3 sequence (looked up) 2: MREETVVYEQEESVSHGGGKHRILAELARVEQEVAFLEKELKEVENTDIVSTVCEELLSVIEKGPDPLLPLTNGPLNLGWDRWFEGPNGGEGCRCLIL

Twinstrep-AtGPA1 [4] = biological target: B2; experiment: MST
[5] = biological target: B1; experiment: MST
Twinstrep-AtGPA1 [6] = biological target: B2; experiment: MST; remark: listed apart in the source
[7] = Kd, nucleotide binding to AtGPA1, MST, 25°C, polyHis-tagged AtGPA1
[8] = Kd, nucleotide binding to XLG2, MST, 25°C, in the presence of Mg2+
[9] = Kd, nucleotide binding to XLG2 in the presence of Ca2+, MST, Ca2+ instead of Mg2+

Molecule: Nc1nc2c(ncn2[C@@H]2O[C@H](COP(=O)(O)OP(=O)(O)O)[C@@H](O)[C@H]2O)c(=O)[nH]1 [GDP, guanosine diphosphate]
Kd (AtGPA1 [1]; [7]): 28000 ± 12000 nM | affinity of XLG2 lower than of AtGPA1 (XLG2; Kd XLG2 vs AtGPA1): ~ 6 fold | Kd (XLG2; [8]): 177000 ± 33000 nM | Kd (XLG2; [9]): ~28000 nM

Molecule: Nc1nc2c(ncn2[C@@H]2O[C@H](COP(=O)(O)OP(=O)(O)OP(O)(O)=S)[C@@H](O)[C@H]2O)c(=O)[nH]1 [GTPγS]
Kd (AtGPA1 [1]; [7]): ~21 nM and 21 nM | affinity of XLG2 lower than that of AtGPA1 / canonical Gα subunits (XLG2; Kd XLG2 vs AtGPA1, same conditions): 100 times | Kd (XLG2; Kd, nucleotide binding to XLG2, MST, 25°C, Mg2+): 2350 ± 460 nM | Kd (XLG2; [8]): ~2000 nM | Kd (XLG2; [9]): ~186000 nM | Kd (AtGPA1 [2]): ~2 nM | Kd (animal G subunits): 10 to 100 nM

Molecule: B1
Kd [3]: 700 nM

Molecule: B2
Kd [3]: 2000 nM

Kd (AtGPA1 [1]; read-out: Kd, Gβγ binding to AtGPA1, Gα in GDP state, MST, Gα in GDP state): ~2000 nM and 2000 nM | Kd (XLG2; read-out: Kd, Gβγ binding to XLG2 Gα domain, MST, column head: Gα in GDP state): ~700 nM and 700 nM
B3: Gβγ: Arabidopsis Gβγ dimer (AGB1/AGG1), His tagged, expressed in Sf9 cells (protein)
chain 1: MSVSELKERHAVATETVNNLRDQLRQRRLQLLDTDVARYSAAQGRTRVSFGATDLVCCRTLQGHTGKVYSLDWTPERNRIVSASQDGRLIVWNALTSQKTHAIKLPCAWVMTCAFSPNGQSVACGGLDSVCSIFSLSSTADKDGTVPVSRMLTGHRGYVSCCQYVPNEDAHLITSSGDQTCILWDVTTGLKTSVFGGEFQSGHTADVLSVSISGSNPNWFISGSCDSTARLWDTRAASRAVRTFHGHEGDVNTVKFFPDGYRFGTGSDDGTCRLYDIRTGHQLQVYQPHGDGENGPVTSIAFSVSGRLLFAGYASNNTCYVWDTLLGEVVLDLGLQQDSHRNRISCLGLSADGSALCTGSWDSNLKIWAFGGHRRVI
chain 2: MREETVVYEQEESVSHGGGKHRILAELARVEQEVAFLEKELKEVENTDIVSTVCEELLSVIEKGPDPLLPLTNGPLNLGWDRWFEGPNGGEGCRCLIL
modifications: left off: His6, N-terminal, state not stated | His6, end not stated, state not stated

Kd (Twinstrep-AtGPA1 [4]): 125 nM | Kd [5]: 198 nM | Kd (Twinstrep-AtGPA1 [6]): 67 nM
B4: RGS+Ct (AtRGS1, residues from 284 to 459) (domain or fragment, Arabidopsis, UniProt Q8H1F2 284-459, looked up)
chain: KEEFRPVDPNEPLDKLLLNKRFRHSFMEFADSCYAGETLHFFEEVYEHGKIPEDDSIRRIYMARHIMEKFIVAGAEMELNLSHKTRQEILTTQDLTHTDLFKNALNEVMQLIKMNLVRDYWSSIYFIKFKEEESCHEAMHKEGYSFSSPRLSSVQGSDDPFYQEHMSKSSRCSSPG

affinity of XLG2 for RGS domain lower than AtGPA1 in its transition state (XLG2; XLG2 vs AtGPA1 in transition state): about 2 times
B5: RGS1-C domain: recombinant C-terminal RGS domain of Arabidopsis AtRGS1, residues from 284 to 459 (protein)
chain: KEEFRPVDPNEPLDKLLLNKRFRHSFMEFADSCYAGETLHFFEEVYEHGKIPEDDSIRRIYMARHIMEKFIVAGAEMELNLSHKTRQEILTTQDLTHTDLFKNALNEVMQLIKMNLVRDYWSSIYFIKFKEEESCHEAMHKEGYSFSSPRLSSVQGSDDPFYQEHMSKSSRCSSPG
modifications: left off: His, end not stated, cleaved | GST, end not stated, cleaved
